Data reported in patent US20140007502A1, “METHODS AND COMPOSITIONS FOR INCREASED PLANT YIELD” (priority 2011, published 2014).

How the values were obtained:
Type in all cases: in vivo
[1] = test system: maize variety DeliTop (NK Seeds); test: Maize field trial yield, Niedersachsen, Germany (Example 6); settings: treatment at BBCH 14, 184 days
From the text: (§1) Plots of suitable size in Valais, Switzerland were planted with maize hybrid COOLER™ (NK Seeds) at a conventional amount of seeds per hectare (in this example, 99,000) and at an increased density amount of seeds per hectare (in this example, 125,000).
(§2) Each density area was divided into four separate treatments—an untreated control, treatment with trinexapac ethyl (0.6 l/Ha of MODDUS™ 250EC which has 250 g trinexapac ethyl per liter) at BBCH 14, treatment with azoyxstrobin (1 l/Ha of a formulated product having 141.4 g azoxystrobin per liter in the form of QUILT® (Syngenta Crop Protection AG) which also contains 122.4 g propiconazole per liter) at BBCH 14, and treatment with trinexapac ethyl (0.6 l/Ha of 250 g/l product) and azoxystrobin (1 l/Ha of 141.4 g/l product) at BBCH 14.
(§3) Best practices were used consistently across the test plots with regard to field conditions such as fertilisation and irrigation and all other measures like weed and insect control. There was no fungal disease pressure. After a growing season of 188 days (29 Apr. 2011 to 3 Nov. 2011), each plot was harvested using a standard harvester. After shelling, the kernels were weighed at 14% moisture and the calculations extrapolated to a ton per hectare yield.
Plots were prepared and treated according to the procedure described in Example 2. The differences were that the location was Niedersachsen, Germany and the variety was DeliTop (NK Seeds). The growing season was 184 days (1 May 2011 to 1 Nov. 2011).

[2] = test system: maize variety Famoso (NK Seeds); test: Maize field trial yield, Milano, Italy, 158 days (Example 5); settings: treatment at BBCH 14
From the text: as §1, §2, §3
Plots were prepared and treated according to the procedure described in Example 2. The differences were that the location was Milano, Italy and the variety was Famoso (NK Seeds). The growing season was 158 days (15 Apr. 2011 to 20 Sep. 2011).

[3] = test system: maize hybrid (Famoso, NK Seeds); test: Maize field plots, kernel yield at conventional and increased plant density (Example 1); settings: kernels at 14% moisture
From the text: Plots measuring 25×40 meters were planted with a common maize hybrid (Famoso, NK Seeds). Eight plots were planted according to density strategies considered optimum prior to the disclosure of the present invention: rows were spaced 75 cm apart, allowing for 16 rows per plot which had 19 cm between plants. Another eight plots were planted with maize at increased density: spacing between rows was 45 cm, giving 24 rows per plot with 22 cm between plants. Thus the density was 7 plants/m^2 for conventional density and 10 plants/m^2 for increased density.
In the 8 plots of conventional density two were untreated controls. Three were treated with a foliar application at stage BBCH 14-15; one with trinexapac ethyl, one with azoxystrobin, and one with a mixture of trinexapac and azoyxstrobin. The remaining three were treated with a foliar application at stage BBCH 31-32; one with trinexapac ethyl, one with azoxystrobin, and one with a mixture of trinexapac and azoyxstrobin. The 8 plots planted at increased density were treated at the same stages and with the same agents as for the conventional density plots. Best practices were used consistently across the test plots with regard to field conditions such as fertilisation and irrigation and all other measures like weed and insect control.
At maturity, each plot was harvested using a standard harvester. After shelling, the kernels were weighed at 14% moisture and the calculations extrapolated to a ton per hectare yield.

[4] = test system: maize hybrid COOLER (NK Seeds); test: Maize field trial yield, Valais, Switzerland (Example 2); settings: treatment at BBCH 14, 188 days
From the text: as §1, §2, §3

[5] = test system: maize variety Terada (NK Seeds); test: Maize field trial yield, Oise, France (Example 4); settings: treatment at BBCH 14, 182 days
From the text: as §1, §2, §3
Plots were prepared and treated according to the procedure described in Example 2. The differences were that the location was Oise, France and the variety was Terada (NK Seeds). The growing season was 182 days (14 Apr. 2011 to 13 Oct. 2011).

[6] = test system: maize variety Famoso (NK Seeds); test: Maize field trial yield, Milano, Italy, 163 days (Example 3); settings: treatment at BBCH 14
From the text: as §1, §2, §3
Plots were prepared and treated according to the procedure described in Example 2. The differences were that the location was Milano, Italy and the variety was Famoso (NK Seeds). The growing season was 163 days (18 Apr. 2011 to 28 Sep. 2011).

[7] = plant density 7 plants/m^2, foliar application at BBCH 14-15
[8] = plant density 7 plants/m^2, foliar application at BBCH 31-32
[9] = plant density 10 plants/m^2, foliar application at BBCH 14-15
[10] = plant density 10 plants/m^2, foliar application at BBCH 31-32

| Structure (SMILES) | Yield ([1]; 72,000 seeds per hectare) [tons/ha] | Yield ([1]; 111,000 seeds per hectare) [tons/ha] | Yield ([2]; 74,000 seeds per hectare) [tons/ha] | Yield ([2]; 94,000 seeds per hectare) [tons/ha] | Yield [3, 7] [tons/ha] | Yield [3, 8] [tons/ha] | Yield [3, 9] [tons/ha] | Yield [3, 10] [tons/ha] | Yield ([4]; 99,000 seeds per hectare) [tons/ha] | Yield ([4]; 125,000 seeds per hectare) [tons/ha] | Yield ([5]; 70,000 seeds per hectare) [tons/ha] | Yield ([5]; 100,000 seeds per hectare) [tons/ha] | Yield ([6]; 73,000 seeds per hectare) [tons/ha] | Yield ([6]; 94,000 seeds per hectare) [tons/ha] |
| --- | --- | --- | --- | --- | --- | --- | --- | --- | --- | --- | --- | --- | --- | --- |
| CO/C=C(/C(=O)OC)c1ccccc1Oc1cc(Oc2ccccc2C#N)ncn1 [Azoxystrobin, azoxystrobin] | 11.4 | 11.1 | 14.0 | 15.0 | 16.67 | 17.28 | 20.11 | 19.58 | 14.1 | 17.8 | 11.2 | 13.6 | 11.6 | 12.2 |
| CCOC(=O)C1CC(=O)C(=C(O)C2CC2)C(=O)C1 (stereo not shown) [Trinexapac Ethyl, trinexapac ethyl] | 11.4 | 11.0 | 13.7 | 14.7 | 16.82 | 16.70 | 19.85 | 19.41 | 14.0 | 18.6 | 10.5 | 14.6 | 11.3 | 12.1 |
